Laboratory results: PubChem BioAssay (NCI)
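Values below derive from 48-hour exposures of cells grown in 96-well plates, with endpoints linearly interpolated between the two concentrations bracketing the appropriate inhibition level. The concentration for full growth arrest is given as TGI.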

Legend:
Test in all cases: growth of human tumour cells (NCI), 48 h
XF 498 CNS = tested on: XF 498 CNS
T-47D breast = tested on: T-47D breast
786-0 renal = tested on: 786-0 renal

Row | SMILES | TGI (XF 498 CNS) | TGI (T-47D breast) | further results
1 | CC(OC(C)(C)C)[C@H](NC(=O)OCC(Cl)(Cl)Cl)C(=O)O (stereo not given in full) | > 100 µM |  | 
2 | O=C(O)CCC(NC(=O)c1ccc(Nc2nc3cc(C(F)(F)F)ccc3nc2-c2ccccc2)cc1)C(=O)O (stereo not given) | > 100 µM |  | 
3 | COc1ccc2cc(/C=N/NC(=O)Nc3ccccc3)ccc2c1 |  | > 100 µM | 
4 | CC1(CCOCc2ccccc2)NC(=O)NC1=O (stereo not given) |  |  | TGI (786-0 renal): > 100 µM
5 | Cc1[nH]nc(C(F)(F)F)c1N=NN1CCOCC1 |  | > 42.8 µM | 
